Source: US20110002820A1, “EXTERIOR SURFACE TREATMENT SYSTEM” (priority 2008, published 2011)

Experiments:
Format in all cases: cell-based
Anabaena cylindrica = test: Algistatic concentration against algae
Chlorella vulgaris = test: Algistatic concentration against algae
Oscillatoria tenius = test: Algistatic concentration against algae
Stiegeocionim sp. = test: Algistatic concentration against algae
Chaetomium globosum = test: Fungicidal activity, minimum inhibitory concentration against fungi
Myrothecium verrucaria = test: as above
Trichoderma viridae = test: as above
Aspergillus niger = test: as above

Row | Molecule | Algistatic concentration (Anabaena cylindrica) | Algistatic concentration (Chlorella vulgaris) | Algistatic concentration (Oscillatoria tenius) | Algistatic concentration (Stiegeocionim sp.) | Minimum inhibitory concentration (Chaetomium globosum) | Minimum inhibitory concentration (Myrothecium verrucaria) | Minimum inhibitory concentration (Trichoderma viridae) | Minimum inhibitory concentration (Aspergillus niger) | MIC (Chaetomium globosum) | MIC (Myrothecium verrucaria; Albifimbria verrucaria) | MIC (Trichoderma viridae) | MIC (Aspergillus niger)
1 | benzalkonium chloride [BAC] | 1.0 ppm | 1.0 ppm | 0.6 ppm | 0.7 ppm | 7 ppm | 150 ppm | 75 ppm | 75 ppm | – | – | – | –
2 | CCCCCCCCCC[N+](C)(C)CCCCCCCCCC.[Cl-] [DDAC, didecyl dimethyl ammonium chloride] | 0.2 ppm | 2.0 ppm | 0.7 ppm | 0.7 ppm | – | – | – | – | 7 µg/mL | 20 µg/mL | 20 µg/mL | 75 µg/mL
